Some test systems named below: NCI-H23; KM12; A549; SK-MEL-5; Hs-578T; UACC-257; ACHN; TK-10; CCRF-CEM; NCI-H226; SNB-78; MDA-N; LOX IMVI; DU-145; HT-29; SF-295; HL-60; SK-MEL-2; SW-620; OVCAR-5.
Holding throughout (assay): inhibition of tumour cell growth, NCI panel, 48 h

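All cell lines were grown in 96-well plates and treated with compound for 48 hours. The concentration for 50% growth inhibition is given as GI50.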 Calls of active or inactive are those of the source. Cut-off read from the data, not from the text of the source: active = GI50 up to about 1.1 µM and inactive = higher.

With `C=C1C(=O)OC2/C=C(\COC(C)=O)CCC(OC(C)=O)C3=CC(OC3=O)C12` (stereo not given), the GI50 was 8.95 µM (inactive) with NCI-H23; 12.7 µM (inactive) in the test on KM12; 20 µM (inactive) in the test with A549; 11.6 µM (inactive) in the test on SK-MEL-5; 24.2 µM (inactive) in the test with Hs-578T; 3.57 µM (inactive) in the test with UACC-257. The GI50 in the test with ACHN was 3.12 µM (inactive); in the test on TK-10, 5.28 µM (inactive); with CCRF-CEM, 1.01 µM (active); with NCI-H226, 23.9 µM (inactive); in the test on SNB-78 it was 2.67 µM (inactive); in the test on MDA-N, > 10 µM (inactive). For the same compound, the GI50 was 5.45 µM (inactive) in the test with LOX IMVI; 36.1 µM (inactive) with DU-145; 3.9 µM (inactive) with HT-29; 18 µM (inactive) in the test on SF-295; 2.23 µM (inactive) with HL-60; 6.46 µM (inactive) in the test on SK-MEL-2. Further, the GI50 with SW-620 is 1.77 µM (inactive); with OVCAR-5, 17.7 µM (inactive).

With `Cc1c(C)c(CC(=O)N2CC2)c(C)c(C)c1CC(=O)N1CC1`, the GI50 with NCI-H23 is 2.77 µM (inactive); with KM12, 17.1 µM (inactive); in the test with A549 it was 7.28 µM (inactive); in the test with SK-MEL-5, > 10 µM (inactive); with Hs-578T it was 30.3 µM (inactive); with UACC-257 it was 17.6 µM (inactive). In addition, the GI50 is 1.43 µM (inactive) in the test on ACHN; 25.9 µM (inactive) in the test on TK-10; 1.15 µM (inactive) in the test with CCRF-CEM; 15.5 µM (inactive) in the test on NCI-H226; 13.7 µM (inactive) in the test with SNB-78; 13.8 µM (inactive) in the test on MDA-N. Moreover, the GI50 is 5.19 µM (inactive) in the test on LOX IMVI; 2.1 µM (inactive) in the test on DU-145; 6.93 µM (inactive) in the test on HT-29; 3.4 µM (inactive) in the test on SF-295; 0.705 µM (active) with HL-60; 16 µM (inactive) in the test on SK-MEL-2. The GI50 in the test on SW-620 was 14.5 µM (inactive); in the test with OVCAR-5 it was 25.7 µM (inactive).

`COc1c(OC(C)=O)c(OC(C)=O)cc2c1-c1ccc(SC)c(=O)cc1C(NC(C)=O)CC2` (stereo not given): the GI50 in the test with NCI-H23 was 0.392 µM (active); with KM12, 0.504 µM (active); with A549, 4.19 µM (inactive); in the test on SK-MEL-5 it was 0.184 µM (active); in the test with Hs-578T, 0.22 µM (active); with UACC-257, 3.72 µM (inactive). Also, the GI50 was 11.6 µM (inactive) in the test with ACHN; 15.3 µM (inactive) in the test with TK-10; 0.384 µM (active) with CCRF-CEM; 7.82 µM (inactive) in the test with NCI-H226; 0.287 µM (active) in the test with SNB-78; 0.163 µM (active) in the test on MDA-N. For the same compound, the GI50 in the test with LOX IMVI was 1.81 µM (inactive); with DU-145, 0.583 µM (active); in the test with HT-29, 0.461 µM (active); in the test on SF-295, 1.45 µM (inactive); in the test with HL-60, 0.208 µM (active); in the test with SK-MEL-2 it was 0.31 µM (active). For the same compound, the GI50 in the test with SW-620 is 0.959 µM (active); in the test with OVCAR-5, 10.1 µM (inactive).

As for `COc1cc(/C=C(\C#N)C(N)=C(C#N)C#N)cc(O)c1O`, the GI50 is > 100 µM (inactive) with NCI-H23; > 84.3 µM (inactive) in the test with KM12; > 100 µM (inactive) in the test on A549; > 100 µM (inactive) in the test with SK-MEL-5; 42.9 µM (inactive) in the test on Hs-578T; > 100 µM (inactive) in the test on UACC-257. The GI50 in the test on ACHN was > 100 µM (inactive); in the test on TK-10 it was > 100 µM (inactive); in the test on CCRF-CEM it was 22.7 µM (inactive); in the test with NCI-H226, > 63.5 µM (inactive); in the test with SNB-78, > 100 µM (inactive); in the test with MDA-N, 68.2 µM (inactive). In addition, the GI50 in the test with LOX IMVI is > 61.4 µM (inactive); with DU-145, > 100 µM (inactive); in the test on HT-29 it was > 83.9 µM (inactive); with SF-295 it was > 77.1 µM (inactive); in the test on HL-60, 26.9 µM (inactive); in the test on SK-MEL-2 it was > 100 µM (inactive). Further, the values for the GI50 in the test with SW-620 and in the test with OVCAR-5 were > 76.4 µM (inactive) and > 100 µM (inactive), respectively.
